Source: patent EP2653477B1, “SCORPION ACTIVE PEPTIDES AND PREPARATION METHODS AND APPLICATIONS THEREOF” (Wuhan More Biotechnology Co., Ltd., priority 2010, dated 2012)
Bridge positions count the residues as written; N and C are the ends. Peptide text beside a SMILES is read from it.

Assays:
potassium channel Kv1.3 = molecular target: T1, potassium channel Kv1.3 (Homo sapiens, UniProt P22001); experiment: whole-cell patch clamp, inhibition of Kv1.3 current in transfected COS-7 cells; assay type: cell-based; settings: potassium channel Kv1.3 in COS-7 cells, read-out: polypeptide concentrations that inhibit the current by half (IC50 value)
T1 construct: expressed in transfected cells; host or cells: COS-7 cells, selected with 0.8 mg/mL geneticin
T1 sequence (P22001 whole entry): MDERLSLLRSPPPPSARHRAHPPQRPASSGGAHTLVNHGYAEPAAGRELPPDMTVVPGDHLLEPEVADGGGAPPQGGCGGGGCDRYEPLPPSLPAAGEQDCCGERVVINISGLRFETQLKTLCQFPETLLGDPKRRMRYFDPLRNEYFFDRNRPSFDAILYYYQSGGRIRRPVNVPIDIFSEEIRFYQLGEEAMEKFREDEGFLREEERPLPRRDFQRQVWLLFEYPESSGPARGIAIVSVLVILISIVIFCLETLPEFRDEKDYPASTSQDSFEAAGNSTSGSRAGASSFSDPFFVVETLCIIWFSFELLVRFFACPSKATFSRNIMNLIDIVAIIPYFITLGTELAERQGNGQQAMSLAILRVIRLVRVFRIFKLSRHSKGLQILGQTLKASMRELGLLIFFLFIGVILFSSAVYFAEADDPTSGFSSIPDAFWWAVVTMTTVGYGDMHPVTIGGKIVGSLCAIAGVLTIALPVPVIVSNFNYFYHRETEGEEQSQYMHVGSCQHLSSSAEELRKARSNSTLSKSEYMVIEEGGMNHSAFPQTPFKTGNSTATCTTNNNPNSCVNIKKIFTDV
Experimental: COS-7 cells were cultured in a DMEM medium containing 10% fetal calf serum, at 37° C, 5% CO2. The recombinant plasmids of potassium channel Kv1.3 were transfected by using a Sofast™ transfection kit, and the transfected cells were selectively cultured in a medium containing 0.8 mg/mL geneticin. The pharmacological activities of scorpion active polypeptides ADMR-011, ADMR-016, ADMR-019, ADMR-023 and ADMR-028 were tested and analyzed by using an instrument of whole-cell patch clamp (EPC-10 dual-channel patch clamp amplifier HEKA, Elektronik, Lambrecht, Germany). The setting of the experimental parameters, the collecting of data, and the applying of stimulus were all controlled by Pulse software (Elektronik, Lambrecht, Germany). The filter of the instrument was set to be 10 kHz (Bessel), and the electrode impedance was 2∼5 MΩ. After the formation of giga-seal (1∼5 GΩ) between the electrode and cell membrane, an automatic c-fast was performed, and the membrane was broken by slightly applying negative pressure, then an automatic c-slow was performed. At a holding potential of -70 mV, depolarizing pulses, incrementing in 10 mV steps, with a step width of 80 ms , were given to stimulate from -60 mV to +50 mV, and the condition of current was observed. The polypeptides ADMR-011, ADMR-016 and ADMR-019 were accurately perfused, which was achieved by MPS-2 (INBIO Inc, Wuhan, China) perfusing system. After dissolving the three scorpion active polypeptides, they were applied by spraying via DAD Drug Application System (ALA), and the tip of the tube for drug application was about 100 µm away from the cell being recorded.
It can be known from Figure 16 to Figure 20 that, the pharmacological activity of ADMR-011 on potassium channel Kvl.3 was 91 pM, the pharmacological activity of ADMR-016 on potassium channel Kvl.3 was 2.58 nM, the pharmacological activity of ADMR-019 on potassium channel Kv1.3 was 1.41 nM, and the pharmacological activity of ADMR-023 and ADMR-028 on potassium channel Kvl.3 were 0.49 nM and 0.65 nM, respectively. Therefore, they are polypeptides with potent activity that are currently found internationally.

Wistar rat EAE model = experiment: EAE (multiple sclerosis) model in Wistar rats induced by GPSCH-CFA, clinical scoring; assay type: in vivo; settings: 100 µg·kg^-1 subcutaneously once every day, x±s, n=10, score 0-5
From the text: Experimental animals: female inbred line Wistar rats (6∼8 week old, body weigh 150±10 g) and guinea pigs (300∼400 g, purchased from Wuhan University Laboratory Animal Center) were selected.
Formulating a mixed emulsion of whole spinal cord homogenate - Freund's complete adjuvant (GPSCH-CFA): a guinea pig was executed, and the spinal cord was rapidly removed, and prepared into 50% PBS homogenate by a ultrasonic disruptor (Sonics & Materials Inc, America), which was mixed with equal amount of Freund's complete adjuvant (BCG vaccine 10 mg/ml), and was pushed back and forth with syringes until forming a water-in-oil emulsion.
Wistar rat EAE model induced by EAE: GPSCH-CFA emulsion was injected intradermally into the foot pads of both the hind legs of Wistar rats, or simultaneously injected intradermally about 1×10^10 pertussis vaccine. The rats were weighed every day, and observed for their neurological symptoms. Experimental autoimmune encephalomyelitis appeared after the rats had been raised for 2 weeks.
The rats with experimental autoimmune encephalomyelitis (EAE) were divided into […] groups randomly: normal control group (negative control group), model control group (model rats + normal saline), administration group A (model rats + ADMR-011 polypeptide), administration group B (model rats + ADMR-016 polypeptide), administration group C (model rats + ADMR-019 polypeptide), administration group D (model rats + ADMR-023 polypeptide), and administration group E (model rats + ADMR-028 polypeptide), 10 rats for each group. For the administration groups, polypeptides ADMR-011, ADMR-016, ADMR-019, ADMR-023 and ADMR-028 were injected subcutaneously respectively at a dose of 100 µg·kg^-1, once every day in the morning. For the normal control group and the model control group, equivalent amount of normal saline was injected subcutaneously, and administered continuously. […] The highest clinical score for each animal was recorded, and the average value of them was taken to be the average clinical score.
The scoring criteria were: without any clinical symptom, 0 point; disappearance of tension in the tail, and observable mild awkward gait, 1 point; weakness in both the hind limbs, which can recover after passive body flipping, 2 points; paralysis in both the hind limbs, which can not recover after passive body flipping, 3 points; tetraplegia accompanied by incontinence of urine and feces, 4 points; moribund state or death, 5 points. Table 1. Scores for rats of various experimental groups in the EAE model (-x±s)

rheumatoid arthritis = experiment: pristane-induced rheumatoid arthritis in SD rats, joint score and hind foot plantar swelling; assay type: in vivo; parameters: key to Score of joint: clinical score 1-4: 1 joint red/swollen=1 ... severe whole-limb arthritis=4; settings: x±s, n=10; for Score of joint: arthritis rats, polypeptides 100 µg·kg^-1 (methotrexate 1.75 µg·kg^-1) subcutaneously once every day, score 1-4; for The swelling degree after the inflammation: volume difference of hind foot before and after the modeling
Experimental: […] Female (♀) specific pathogen free (SPF) inbred line SD rats (Wuhan University Laboratory Animal Center), body weight 150±10 g, were selected, and pristane was injected intradermally at the base of the tail of rats in experimental groups at a dose of 0.2 ml/rat, after they were acclimatized in a clean-grade environment for 1 week. Rheumatoid arthritis appeared after the rats were raised for only 2 weeks.
The rats having arthritis were randomized into: normal control group (negative control group), model negative control group (model rat + normal saline), model positive control group (model rat + methotrexate), administration group A (model rat + ADMR-011 polypeptide), administration group B (model rat + ADMR-016 polypeptide), administration group C (model rat + ADMR-019 polypeptide), administration group D (model rat + ADMR-023 polypeptide), and administration group E (model rat + ADMR-028 polypeptide), 10 rats for each group. The administration groups were injected subcutaneously at a dose of 100 µg·kg^-1, once every day in the morning, and administered continuously; the normal control group and the model negative control group were injected subcutaneously with equivalent amount of normal saline; and the model positive control group were injected subcutaneously with methotrexate (MTX) at a dose of 1.75 µg·kg^-1, once every day, and administered continuously.
The highest clinical score for each animal was recorded, and the average value of them was taken to be the average clinical score. The scoring criteria were: one joint of a rat was red and swollen, 1 point; two joints of a rat were red and swollen, 2 points; all the joints of a rat were red and swollen, 3 points; severe arthritis in the entire limb of a rat, 4 points. Table 2. Arthritis scores for rats of various experimental groups (-x±s)
From day 8 of the experiment, the hind foot plantar volume of the rat was measured and recorded every other day for 21 consecutive days, and the swelling degree (mL) was calculated according to the volume difference before and after the modeling. Table 3. The swelling degree of rats in various experimental groups (-x±s)

Kunming mice = experiment: toxicity study in mice, single intraperitoneal injection, 7 days observation; assay type: in vivo; settings: 10 mg/kg intraperitoneally once (100 times the dose for animal model), observed 7 days
Experimental: 18∼20 g Kunming mice were selected, and divided into 4 groups, 8 male mice and 8 female mice for each group. The lyophilized powders of scorpion active polypeptides ADMR-011, ADMR-016, ADMR-019, ADMR-023 and ADMR-028 were dissolved with normal saline respectively, and the 3 groups of mice were injected intraperitoneally once respectively with polypeptide solution at a dose of 10 mg/kg (100 times of the dose for animal model), and the fourth group were injected with equivalent amount of normal saline as control.
After the administration, the respiration, motor and heartbeat in animals of all the groups were all normal, without significant abnormal reaction. 7 days after the administration, all the animals were conducted gross anatomy to observe the volume, color and texture of the main organs (heart, liver, spleen, lung, and kidney), and there was no macroscopic lesion. There were no significant difference between the 3 administration groups and the normal saline group.

Q: CC[C@H](C)[C@H](NC(=O)CNC(=O)[C@@H](N)C(C)C)C(=O)N[C@@H](CC(N)=O)C(=O)N[C@H](C(=O)N[C@@H](CCC(N)=O)C(=O)N[C@H]1CSSC[C@@H]2NC(=O)[C@H](CCC(N)=O)NC(=O)CNC(=O)[C@H](Cc3ccccc3)NC(=O)[C@H](CCCNC(=N)N)NC(=O)[C@H](CCSC)NC(=O)CNC(=O)[C@H](C)NC(=O)[C@H](CC(=O)O)NC(=O)[C@H](CCCCN)NC(=O)[C@@H]3CSSC[C@@H](C(=O)N[C@H](C(=O)N4CCC[C@H]4C(=O)N[C@@H](CCCCN)C(=O)O)[C@@H](C)O)NC(=O)[C@H](CC(=O)O)NC(=O)[C@H](CSSC[C@H](NC(=O)[C@H](CCC(N)=O)NC(=O)[C@H](CCCNC(=N)N)NC(=O)[C@H](CO)NC(=O)[C@H](Cc4c[nH]cn4)NC(=O)[C@H](CC(N)=O)NC1=O)C(=O)N[C@@H](CC(C)C)C(=O)N[C@@H](CCCCN)C(=O)N1CCC[C@H]1C(=O)N3)NC(=O)[C@H]([C@@H](C)O)NC(=O)CNC(=O)[C@H](CC(N)=O)NC(=O)[C@H]([C@@H](C)CC)NC2=O)C(C)C [ADMR-028] (H-VGINVQCNHSRQCLKPCKDAGMRFGQCINGTCDCTPK-OH; disulfide 7-27, 13-32, 17-34 (inferred); N-terminus and C-terminus assumed) was tested. Which IC50 (potassium channel Kv1.3) did it give?
A: 0.65 nM

Q: What about the Average clinical scores (Wistar rat EAE model; 8 d) of the same compound?
A: 0.49±0.12

Q: What about the Average clinical scores (Wistar rat EAE model; 10 d) of the same compound?
A: 0.95±0.22

Q: What about the Average clinical scores (Wistar rat EAE model; 12 d) of the same compound?
A: 1.09±0.37

Q: And the Average clinical scores (Wistar rat EAE model; 14 d)?
A: 1.13±0.29

Q: And the Score of joint (rheumatoid arthritis; 10 d)?
A: 1.79±0.55

Q: And the Score of joint (rheumatoid arthritis; 15 d)?
A: 2.11±0.45

Q: And the Score of joint (rheumatoid arthritis; 21 d)?
A: 1.79±0.63

Q: And the “The swelling degree after the inflammation” value (shortened to “The swelling degree”) (rheumatoid arthritis; d8)?
A: 0.037 ± 0.013 mL

Q: What about the “The swelling degree” value (rheumatoid arthritis; d15) of the same compound?
A: 0.28 ± 0.05 mL

Q: What about the “The swelling degree” value (rheumatoid arthritis; d22) of the same compound?
A: 0.38 ± 0.13 mL

Q: What about the “The swelling degree” value (rheumatoid arthritis; d28) of the same compound?
A: 0.31 ± 0.14 mL

Q: What about the toxicity in mice (Kunming mice) of the same compound?
A: no significant toxicity
